Results from article PMC9657098, “Synthesis, In Vitro Biological Evaluation and In Silico Molecular Docking Studies of Indole Based Thiadiazole Derivatives as Dual Inhibitor of Acetylcholinesterase and Butyrylchloinesterase” (Molecules, 2022).
Read-outs that look alike come from different tables or passages of the source.

Legend:
AChE = AChE (Homo sapiens, UniProt P22303); experiment: biochemical
Description: (§1) 3.5. Acetylcholinesterase Activity Assay Protocol
(§2) The inhibition of AChE and BChE was determined using a method described earlier.
(§3) Briefly, the stock solutions (1mg/mL) of test analogues were prepared using DMSO. The working solutions (1–100μg/mL) were prepared using serial dilutions (a serial dilution means a series of diluted solutions, e.g., 0.1mg/mL, 0.2mg/mL and so on; the solutions contained 5% DMSO and 95% water). The various concentrations of test compounds (10μL) were pre-incubated with sodium phosphate buffer (0.1 M; pH 8.0; 150μL) and AChE (0.1 U/mL; 20μL) for 15 min at 25°C. The reaction was initiated via the addition of DTNB (1 mM; 10μL) and […] (1 mM; 10 μL). The mixture of reaction was mixed using a cyclomixer and incubated for […]
(§4) wavelength against the blank reading containing 10μL DMSO instead of the test compound (the solution contained 5% DMSO and 95% water). Utilizing the formula given in Equation (1), the percentage of inhibition was computed, and the IC50 was determined under the positive control […]
(§5) % Inhibition = (Absorbance of control—Absorbance of compound)/Absorbance of control × 100 […]
(§6) which was calculated by constructing a non-linear regression graph between the percentages of inhibition vs. concentration, using Graph Pad prism software (version 5.3)(accessed on 5 August […]

BuChE = BuChE (Homo sapiens, UniProt P06276); experiment: biochemical
Description: as §1, §2, §3, §4, §5, §6

[1] = in vitro enzyme inhibition, 25°C, pH 8.0, read-out: AChE IC50 (µM ± SEM)
[2] = in vitro enzyme inhibition, read-out: BuChE IC50 (µM ± SEM)

Sequence of BuChE (P06276 29-602): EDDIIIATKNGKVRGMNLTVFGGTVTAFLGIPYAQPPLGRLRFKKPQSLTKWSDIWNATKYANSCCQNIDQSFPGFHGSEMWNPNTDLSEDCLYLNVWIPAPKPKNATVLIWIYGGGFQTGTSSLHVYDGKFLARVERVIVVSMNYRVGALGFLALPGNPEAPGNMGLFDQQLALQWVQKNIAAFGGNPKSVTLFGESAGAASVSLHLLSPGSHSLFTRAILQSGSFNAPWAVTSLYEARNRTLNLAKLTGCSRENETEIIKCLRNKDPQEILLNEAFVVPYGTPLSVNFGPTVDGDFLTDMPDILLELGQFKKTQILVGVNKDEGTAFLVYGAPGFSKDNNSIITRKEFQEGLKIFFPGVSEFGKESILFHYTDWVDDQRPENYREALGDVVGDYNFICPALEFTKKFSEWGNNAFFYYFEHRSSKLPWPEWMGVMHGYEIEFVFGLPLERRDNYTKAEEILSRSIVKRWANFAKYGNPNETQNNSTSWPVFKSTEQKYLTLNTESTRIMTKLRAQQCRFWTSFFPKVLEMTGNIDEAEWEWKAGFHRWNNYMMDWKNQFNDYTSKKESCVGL
Sequence of AChE (P22303 32-614): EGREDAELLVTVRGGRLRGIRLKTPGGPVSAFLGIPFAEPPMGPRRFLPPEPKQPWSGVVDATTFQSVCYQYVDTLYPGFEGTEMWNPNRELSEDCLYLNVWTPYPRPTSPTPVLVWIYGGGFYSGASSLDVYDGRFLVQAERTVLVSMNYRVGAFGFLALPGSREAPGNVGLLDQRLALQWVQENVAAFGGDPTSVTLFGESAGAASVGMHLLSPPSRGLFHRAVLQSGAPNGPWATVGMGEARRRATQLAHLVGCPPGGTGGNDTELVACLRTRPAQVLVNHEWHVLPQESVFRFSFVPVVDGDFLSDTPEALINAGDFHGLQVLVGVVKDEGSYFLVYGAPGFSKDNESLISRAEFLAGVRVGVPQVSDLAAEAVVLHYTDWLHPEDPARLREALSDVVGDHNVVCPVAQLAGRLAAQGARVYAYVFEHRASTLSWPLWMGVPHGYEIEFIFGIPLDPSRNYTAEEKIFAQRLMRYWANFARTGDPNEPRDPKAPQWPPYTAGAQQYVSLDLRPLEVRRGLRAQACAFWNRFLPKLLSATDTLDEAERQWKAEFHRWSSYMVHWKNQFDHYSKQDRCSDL

Row | Compound | IC50 (AChE; [1]) [µM] | IC50 (BuChE; [2]) [µM] | IC50 (AChE; read-out: IC50 for AchE (abstract)) [µM] | IC50 (AChE) [µM] | IC50 (BuChE) [µM]
1 | Fc1ccccc1Nc1nnc(Cc2cc3cc(Cl)ccc3[nH]2)s1 [Compound 9] | 0.35 ± 0.05 | 0.5 ± 0.05 |  |  | 
2 | Cc1ccc(Nc2nnc(Cc3cc4cc(Cl)ccc4[nH]3)s2)cc1C [Compound 5] | 5.8 ± 0.2 | 9.3 ± 0.1 |  |  | 
3 | COc1cc(Nc2nnc(Cc3cc4cc(Cl)ccc4[nH]3)s2)ccc1[N+](=O)[O-] [Compound 13] | 19.1 ± 0.3 | 25.3 ± 0.4 |  |  | 
4 | Fc1ccc(Nc2nnc(Cc3cc4cc(Cl)ccc4[nH]3)s2)cc1 [Compound 8] |  | 0.2 ± 0.1 | 0.15 ± 0.05 |  | 
5 | O=[N+]([O-])c1ccc(Br)c(Nc2nnc(Cc3cc4cc(Cl)ccc4[nH]3)s2)c1 [Compound 16] |  | 34.3 ± 0.6 |  |  | 
6 | O=[N+]([O-])c1cccc([N+](=O)[O-])c1Nc1nnc(Cc2cc3cc(Cl)ccc3[nH]2)s1 [Compound 4] |  |  |  | 2.8 ± 0.1 | 5.4 ± 0.1
7 | Cc1cccc(Nc2nnc(Cc3cc4cc(Cl)ccc4[nH]3)s2)c1C [Compound 6] | 8.7 ± 0.2 | 10.9 ± 0.1 |  |  | 
8 | O=[N+]([O-])c1cc(Br)cc(Nc2nnc(Cc3cc4cc(Cl)ccc4[nH]3)s2)c1 [Compound 11] | 12.3 ± 0.2 | 18.4 ± 0.3 |  |  | 
9 | FC(F)(F)c1ccc(Nc2nnc(Cc3cc4cc(Cl)ccc4[nH]3)s2)cc1Cl [Compound 14] | 0.4 ± 0.05 | 2.6 ± 0.1 |  |  | 
10 | COc1c(Nc2nnc(Cc3cc4cc(Cl)ccc4[nH]3)s2)cccc1[N+](=O)[O-] [Compound 12] | 14.7 ± 0.3 | 19.2 ± 0.3 |  |  | 
11 | O=[N+]([O-])c1cc(Nc2nnc(Cc3cc4cc(Cl)ccc4[nH]3)s2)ccc1Br [Compound 15] | 22.2 ± 0.4 | 32.1 ± 0.1 |  |  | 
12 | Fc1cccc(Nc2nnc(Cc3cc4cc(Cl)ccc4[nH]3)s2)c1 [Compound 10] | 1.1 ± 0.1 | 2.8 ± 0.1 |  |  | 
